Assay in all cases: NCI tumour cell line growth inhibition, 48 h
Test [1] deals with ACHN renal.
Test [2] concerns HCT-116 colon.
Test [3] has as its system HCT-15 colon.
Test [4] deals with HL-60(TB) leukemia.
Test [5] concerns HT29 colon.
For test [6], the system named is OVCAR-3 ovarian.
The test system of test [7] is OVCAR-5 ovarian.
Test [8] deals with SF-268 CNS.
Test [9] deals with SF-295 CNS.
Test [10] has as its system U251 CNS.

From PubChem BioAssay (NCI) come the findings set out here.

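Test compounds were applied to cells in 96-well plates for 48 hours at 5 doses. Definition used: TGI = concentration required for complete inhibition of growth.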

For `O=C1C(=Cc2ccc([N+](=O)[O-])o2)C(=O)N(CCc2ccccc2)S(=O)(=O)N1CCc1ccccc1`, the TGI in [1] was 31.2 µM; in [2], 29.9 µM; in test [3] it was 30.2 µM; in [4] it was 41.9 µM; in test [5], over 100 µM; in test [6], 31.4 µM. In addition, the TGI was over 100 µM in test [7], 57.8 µM in test [8], over 100 µM in test [9] and over 100 µM in test [10].
For `COc1ccccc1[C@@H]1CCC2CC[C@@H](c3ccccc3OC)[N+]21Cc1ccccc1` (stereo not given in full), the TGI in test [1] was 12.6 µM; in test [2], 13.1 µM; in test [3], 15.2 µM; in test [4], 4.88 µM; in [5], 10.1 µM; in test [6], 10.7 µM. The TGI in [7] amounted to 12.9 µM; in test [8], 17.4 µM; in test [9], 8.57 µM; in test [10] it was 11.2 µM.
Turning to `C[C@]12CCC(=O)C=C1CC[C@@H]1C2CC[C@@]2(C)C1CC[C@@H]2OC(=O)C12OC1CCC2=O` (stereo not given in full), the TGI was 29.3 µM in [1]; 29.2 µM in test [2]; 30.7 µM in test [3]; 33.5 µM in [4]; 33.4 µM in test [5]; 32.9 µM in test [6]. Besides, the TGI in [7] is 33.9 µM; in test [8], 41.2 µM; in test [9], 34.7 µM; in test [10], 29.1 µM.
Take `Cc1sc2nc3n(c(=O)c2c1C)N=C(c1ccccc1)CS3`: the TGI in test [1], in test [2], in test [3], in [4], in [5] and in test [6] was over 100 µM each time. For the same molecule, the TGI in test [7], in test [8], in [9] and in test [10] was over 100 µM in each case.
Take `O=C1c2c(F)c(F)c(F)c(F)c2SC2=Nc3cccc4cccc(c34)N12`: the TGI is 16.8 µM in [1]; 11.9 µM in test [2]; 14.8 µM in [3]; over 20 µM in test [4]; 21.4 µM in test [5]; 7.58 µM in [6]. Further, the TGI in [7] was determined as 30.9 µM; in [8], 13.7 µM; in [9] it was 30.9 µM; in test [10], 10.7 µM.
Take `CCOC(=O)[C@H](CO)Nc1c(O)c2c(c(O)c1Cl)C(=O)C=CC2=O`: the TGI in test [1], in test [2], in test [3], in test [4], in test [5] and in test [6] was over 10 µM in each case. Also, the TGI in test [7], in test [8], in test [9] and in test [10] was over 10 µM each time.
With `O=C1NC2OC(CO)C(O)C(O)C2O1` (stereo not given), the TGI in test [1], in test [2], in test [3], in [4], in test [5] and in test [6] was over 100 µM in each case. Also, the TGI in test [7], in [8], in [9] and in [10] was over 100 µM in each case.
Consider `COc1ccc(OC)c(-c2cc(=O)c3cc4c(cc3[nH]2)OCO4)c1`, for which the TGI was over 80.2 µM in test [1]; over 35.7 µM in [2]; over 55.5 µM in test [3]; over 26.1 µM in test [4]; over 100 µM in [5]; over 55.2 µM in test [6]. The TGI in test [7] is over 100 µM; in test [8], over 100 µM; in [9], over 27.6 µM; in test [10], over 77.9 µM.
On to `CCOC(=O)C1=C(O)c2ccc(OC)cc2C(=O)C1=O`, for which the TGI in test [1], in [2], in test [3], in test [4], in test [5] and in test [6] was over 100 µM in each case. The TGI in test [7], in test [8], in [9] and in [10] was over 100 µM throughout.
Regarding `COc1cc(C2c3cc4c(cc3OC(NNc3ccccc3)C2C)OCO4)cc(OC)c1O` (stereo not given), the TGI in test [1] was found to be 10.4 µM; in [2], 13.5 µM; in [3], 11.9 µM; in [4], 5.18 µM; in test [5], 16.7 µM; in test [6], 14.8 µM. In addition, the TGI in [7] was determined as 18 µM; in test [8], 27.4 µM; in [9], 11.3 µM; in [10] it was 16.3 µM.
Consider `CCOC(=O)c1cc([N+](=O)[O-])cc([N+](=O)[O-])c1Sc1ncnc2nc[nH]c12`, for which the TGI in test [1] came to 4.17 µM; in test [2], 7.69 µM; in [3] it was 19.7 µM; in test [4], 4.33 µM; in test [5] it was 15.3 µM; in test [6] it was 2.45 µM. Further, the TGI in [7] is 27.6 µM; in test [8], 16 µM; in test [9] it was 38.1 µM; in test [10], 24.8 µM.
In the case of `O=c1cc(NNc2cccc(F)c2)[nH]c(=S)[nH]1`, the TGI in test [1], in [2], in test [3], in test [4], in test [5] and in [6] was over 100 µM each time. Moreover, the TGI in test [7], in [8], in [9] and in test [10] was over 100 µM throughout.
For `CCOC(=O)[C@@]12NN=N[C@@H]1[C@H]1CO[C@H](c3ccccc3)N1C2=O`, the TGI in test [1] was 28.2 µM; in test [2] it was 32.5 µM; in test [3] it was 32.9 µM; in [4] it was over 100 µM; in test [5] it was 32.4 µM; in test [6] it was 24.5 µM. Moreover, the TGI in [7] amounted to 31.8 µM; in test [8], 30.8 µM; in test [9], 27.5 µM; in [10], 18.4 µM.
Regarding `N#CC(C#N)C1CN2CCC1CC2` (stereo not given), the TGI in test [1], in test [2], in [3], in test [4], in [5] and in test [6] was over 100 µM in each case. The TGI in test [7], in test [8], in test [9] and in test [10] was over 100 µM throughout.
